Source: paper PMC8887546, “Design and Synthesis of Brain Penetrant Glycopeptide Analogues of PACAP With Neuroprotective Potential for Traumatic Brain Injury and Parkinsonism” (Frontiers in drug discovery, 2022)

Columns and labels:
Type in all cases: cell-based
human VPAC2 receptor = molecular target: T1, human VPAC2 receptor (Homo sapiens, UniProt P41587); assay: cAMP stimulation in CHO cells expressing VPAC2; conditions: for Emax: CHO; for Receptor selectivity ratio VPAC2/PAC1 / Receptor selectivity ratio VPAC2/VPAC1: ratio of cAMP EC50 values
T1 construct: expressed in transfected cells; host or cells: CHO cells (G418 selection)
T1 sequence (P41587 24-438): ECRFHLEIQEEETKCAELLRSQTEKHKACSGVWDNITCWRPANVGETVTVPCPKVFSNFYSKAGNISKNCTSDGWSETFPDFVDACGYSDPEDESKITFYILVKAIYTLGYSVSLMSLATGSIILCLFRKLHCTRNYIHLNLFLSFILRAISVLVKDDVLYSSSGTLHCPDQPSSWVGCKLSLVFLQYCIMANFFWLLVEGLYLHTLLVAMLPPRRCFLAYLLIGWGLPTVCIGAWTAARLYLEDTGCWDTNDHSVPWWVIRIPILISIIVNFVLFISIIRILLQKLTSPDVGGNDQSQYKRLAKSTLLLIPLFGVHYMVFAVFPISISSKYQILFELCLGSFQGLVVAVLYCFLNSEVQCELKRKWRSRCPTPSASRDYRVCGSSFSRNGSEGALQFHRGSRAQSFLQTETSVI
In short: (§1)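 Serum-starved CHO cells expressing human receptors were pre-treated 20 min with 500 μM IBMX, then exposed to agonist concentration curves for 10 min in 500 μM IBMX. cAMP quantified by competition with bovine PKA and ^3H-cAMP (1 h, room temperature), scintillation read.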

human PAC1 receptor = molecular target: T2, human PAC1 receptor (Homo sapiens, UniProt P41586); assay: cAMP stimulation in CHO cells expressing PAC1; conditions: for Emax: CHO
T2 construct: expressed in transfected cells; host or cells: CHO cells (G418 selection)
T2 sequence (P41586 21-468): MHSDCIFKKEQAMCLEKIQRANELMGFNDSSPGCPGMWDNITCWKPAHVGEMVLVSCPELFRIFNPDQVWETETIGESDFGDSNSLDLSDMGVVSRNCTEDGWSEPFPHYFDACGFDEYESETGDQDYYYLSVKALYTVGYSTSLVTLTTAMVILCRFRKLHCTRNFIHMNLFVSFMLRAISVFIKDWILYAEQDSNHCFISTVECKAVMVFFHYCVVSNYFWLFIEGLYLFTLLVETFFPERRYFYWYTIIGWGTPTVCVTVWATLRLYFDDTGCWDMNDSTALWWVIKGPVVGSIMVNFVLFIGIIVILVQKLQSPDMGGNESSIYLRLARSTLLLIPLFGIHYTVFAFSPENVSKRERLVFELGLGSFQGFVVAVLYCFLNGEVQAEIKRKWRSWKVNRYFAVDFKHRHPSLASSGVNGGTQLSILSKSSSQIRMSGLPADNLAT
In short: as §1

human VPAC1 receptor = molecular target: T3, human VPAC1 receptor (Homo sapiens, UniProt P32241); assay: cAMP stimulation in CHO cells expressing VPAC1; conditions: for Emax: CHO, read-out: VPAC1 Emax; for Receptor selectivity ratio VPAC1/PAC1: ratio of cAMP EC50 values; for EC50: read-out: VPAC1 EC50
T3 construct: expressed in transfected cells; host or cells: CHO cells (G418 selection)
T3 sequence (P32241 31-457): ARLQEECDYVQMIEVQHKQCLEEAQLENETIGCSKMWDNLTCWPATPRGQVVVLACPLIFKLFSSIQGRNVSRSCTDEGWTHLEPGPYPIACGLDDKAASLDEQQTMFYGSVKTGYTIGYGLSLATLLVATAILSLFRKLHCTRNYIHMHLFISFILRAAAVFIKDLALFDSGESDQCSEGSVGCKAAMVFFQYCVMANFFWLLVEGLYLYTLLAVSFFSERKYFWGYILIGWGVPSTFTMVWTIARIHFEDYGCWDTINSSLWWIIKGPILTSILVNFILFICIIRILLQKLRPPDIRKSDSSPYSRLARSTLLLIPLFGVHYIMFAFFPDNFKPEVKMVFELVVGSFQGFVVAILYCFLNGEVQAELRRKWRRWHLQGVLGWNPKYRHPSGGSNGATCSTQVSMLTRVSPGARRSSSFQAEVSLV

| Structure (SMILES) | EC50 (human VPAC2 receptor) | Emax (human VPAC2 receptor) | Receptor selectivity ratio VPAC2/PAC1 (human VPAC2 receptor) | Receptor selectivity ratio VPAC2/VPAC1 (human VPAC2 receptor) | EC50 (human PAC1 receptor) | Emax (human PAC1 receptor) | Emax (human VPAC1 receptor) | Receptor selectivity ratio VPAC1/PAC1 (human VPAC1 receptor) | EC50 (human VPAC1 receptor) |
| --- | --- | --- | --- | --- | --- | --- | --- | --- | --- |
| CCCC[C@H](NC(=O)CN(C)C(=O)[C@H](CC(=O)O)NC(=O)[C@@H](CO)NC(=O)[C@H](Cc1c[nH]cn1)NC(C)=O)C(=O)N[C@@H](Cc1ccccc1)C(=O)N[C@H](C(=O)N[C@@H](CC(=O)O)C(=O)N[C@@H](CO)C(=O)N[C@@H](Cc1ccc(O)cc1)C(=O)N[C@@H](CO)C(=O)N[C@@H](CCCNC(=N)N)C(=O)N[C@@H](Cc1ccc(O)cc1)C(=O)N[C@@H](CCCNC(=N)N)C(=O)N[C@@H](CCCCN)C(=O)N[C@@H](CCC(N)=O)C(=O)N[C@@H](CCC)C(=O)N[C@@H](C)C(=O)N[C@H](C(=O)N[C@@H](CCCCN)C(=O)N[C@@H](CCCCN)C(=O)N[C@@H](Cc1ccc(O)cc1)C(=O)N[C@@H](CC(C)C)C(=O)N[C@@H](C)C(=O)N[C@@H](C)C(=O)N[C@H](C(=O)N[C@@H](CC(C)C)C(=O)N[C@@H](CO[C@@H]1O[C@H](CO)[C@@H](O)[C@H](O)[C@H]1O)C(N)=O)C(C)C)C(C)C)[C@@H](C)O [Ac-CRA 3018] | > 2.5 µM | 31% |  |  | > 2.5 µM | 35% | 36% |  | 0.415 µM |
| CCC[C@H](NC(=O)[C@H](CCC(N)=O)NC(=O)[C@H](CCCCN)NC(=O)[C@H](CCCNC(=N)N)NC(=O)[C@H](Cc1ccc(O)cc1)NC(=O)[C@H](CCCNC(=N)N)NC(=O)[C@H](CO)NC(=O)[C@H](Cc1ccc(O)cc1)NC(=O)[C@H](CO)NC(=O)[C@H](CC(=O)O)NC(=O)[C@@H](NC(=O)[C@H](Cc1ccccc1)NC(=O)[C@@H](NC(=O)CNC(=O)[C@H](CC(=O)O)NC(=O)[C@@H](CO)NC(=O)[C@H](Cc1c[nH]cn1)NC(C)=O)[C@@H](C)CC)[C@@H](C)O)C(=O)N[C@@H](C)C(=O)N[C@H](C(=O)N[C@@H](CCCCN)C(=O)N[C@@H](CCCCN)C(=O)N[C@@H](Cc1ccc(O)cc1)C(=O)N[C@@H](CC(C)C)C(=O)N[C@@H](C)C(=O)N[C@@H](C)C(=O)N[C@H](C(=O)N[C@@H](CC(C)C)C(=O)N[C@@H](CO[C@@H]1O[C@H](CO)[C@@H](O[C@@H]2O[C@H](CO)[C@H](O)[C@H](O)[C@H]2O)[C@H](O)[C@H]1O)C(N)=O)C(C)C)C(C)C [Ac-CRA 3000-Lac] |  | 114% |  |  |  | 86% | 99% |  |  |
| CCC[C@H](NC(=O)[C@H](CCC(N)=O)NC(=O)[C@H](CCCCN)NC(=O)[C@H](CCCNC(=N)N)NC(=O)[C@H](Cc1ccc(O)cc1)NC(=O)[C@H](CCCNC(=N)N)NC(=O)[C@H](CO)NC(=O)[C@H](Cc1ccc(O)cc1)NC(=O)[C@H](CO)NC(=O)[C@H](CC(=O)O)NC(=O)[C@@H](NC(=O)[C@H](Cc1ccccc1)NC(=O)[C@@H](NC(=O)CNC(=O)[C@H](CC(=O)O)NC(=O)[C@@H](CO)NC(=O)[C@@H](N)Cc1c[nH]cn1)C(C)C)[C@@H](C)O)C(=O)N[C@@H](C)C(=O)N[C@H](C(=O)N[C@@H](CCCCN)C(=O)N[C@@H](CCCCN)C(=O)N[C@@H](Cc1ccc(O)cc1)C(=O)N[C@@H](CC(C)C)C(=O)N[C@@H](C)C(=O)N[C@@H](C)C(=O)N[C@H](C(=O)N[C@@H](CC(C)C)C(=O)N[C@@H](CO[C@@H]1O[C@H](CO)[C@@H](O)[C@H](O)[C@H]1O)C(N)=O)C(C)C)C(C)C [CRA 3012] | 1.33 µM | 107% | 16.30 | 6.22 | 0.0817 µM | 80% | 118% | 2.62 | 0.214 µM |
| CCC[C@H](NC(=O)[C@H](CCC(N)=O)NC(=O)[C@H](CCCCN)NC(=O)[C@H](CCCNC(=N)N)NC(=O)[C@H](Cc1ccc(O)cc1)NC(=O)[C@H](CCCNC(=N)N)NC(=O)[C@H](CO)NC(=O)[C@H](Cc1ccc(O)cc1)NC(=O)[C@H](CO)NC(=O)[C@H](CC(=O)O)NC(=O)[C@@H](NC(=O)[C@H](Cc1ccccc1)NC(=O)[C@@H](NC(=O)CNC(=O)[C@H](CC(=O)O)NC(=O)[C@@H](CO)NC(=O)[C@H](Cc1c[nH]cn1)NC(C)=O)[C@@H](C)CC)[C@@H](C)O)C(=O)N[C@@H](C)C(=O)N[C@H](C(=O)N[C@@H](CCCCN)C(=O)N[C@@H](CCCCN)C(=O)N[C@@H](Cc1ccc(O)cc1)C(=O)N[C@@H](CC(C)C)C(=O)N[C@@H](C)C(=O)N[C@@H](C)C(=O)N[C@H](C(=O)N[C@@H](CC(C)C)C(=O)N[C@@H](CO[C@@H]1O[C@H](CO)[C@@H](O)[C@H](O)[C@H]1O)C(N)=O)C(C)C)C(C)C [Ac-CRA3000] |  | 106% |  |  |  | 90% | 94% |  |  |

Now from value to compound:

| EC50 (human VPAC2 receptor) | Emax (human VPAC2 receptor) | Receptor selectivity ratio VPAC2/PAC1 (human VPAC2 receptor) | Receptor selectivity ratio VPAC2/VPAC1 (human VPAC2 receptor) | EC50 (human PAC1 receptor) | Emax (human PAC1 receptor) | Emax (human VPAC1 receptor) | Receptor selectivity ratio VPAC1/PAC1 (human VPAC1 receptor) | EC50 (human VPAC1 receptor) | Structure (SMILES) |
| --- | --- | --- | --- | --- | --- | --- | --- | --- | --- |
| 0.866 µM | 92% | 1.93 | 7.22 | 0.448 µM | 72% | 104% | 0.27 | 0.12 µM | CCC[C@H](NC(=O)[C@H](CCC(N)=O)NC(=O)[C@H](CCCCN)NC(=O)[C@H](CCCNC(=N)N)NC(=O)[C@H](Cc1ccc(O)cc1)NC(=O)[C@H](CCCNC(=N)N)NC(=O)[C@H](CO)NC(=O)[C@H](Cc1ccc(O)cc1)NC(=O)[C@H](CO)NC(=O)[C@H](CC(=O)O)NC(=O)[C@@H](NC(=O)[C@H](Cc1ccccc1)NC(=O)[C@@H](NC(=O)CNC(=O)[C@H](CC(=O)O)NC(=O)[C@@H](CO)NC(=O)[C@@H](N)Cc1c[nH]cn1)C(C)(C)C)[C@@H](C)O)C(=O)N[C@@H](C)C(=O)N[C@H](C(=O)N[C@@H](CCCCN)C(=O)N[C@@H](CCCCN)C(=O)N[C@@H](Cc1ccc(O)cc1)C(=O)N[C@@H](CC(C)C)C(=O)N[C@@H](C)C(=O)N[C@@H](C)C(=O)N[C@H](C(=O)N[C@@H](CC(C)C)C(=O)N[C@@H](CO[C@@H]1O[C@H](CO)[C@@H](O)[C@H](O)[C@H]1O)C(N)=O)C(C)C)C(C)C [CRA3015] |
| 0.189 µM | 109% | 17.83 | 39.38 | 0.0106 µM | 95% | 94% | 0.45 | 0.0048 µM | CCCC[C@H](NC(=O)CNC(=O)[C@H](CC(=O)O)NC(=O)[C@@H](CO)NC(=O)[C@@H](N)Cc1c[nH]cn1)C(=O)N[C@@H](Cc1ccccc1)C(=O)N[C@H](C(=O)N[C@@H](CC(=O)O)C(=O)N[C@@H](CO)C(=O)N[C@@H](Cc1ccc(O)cc1)C(=O)N[C@@H](CO)C(=O)N[C@@H](CCCNC(=N)N)C(=O)N[C@@H](Cc1ccc(O)cc1)C(=O)N[C@@H](CCCNC(=N)N)C(=O)N[C@@H](CCCCN)C(=O)N[C@@H](CCC(N)=O)C(=O)N[C@@H](CCC)C(=O)N[C@@H](C)C(=O)N[C@H](C(=O)N[C@@H](CCCCN)C(=O)N[C@@H](CCCCN)C(=O)N[C@@H](Cc1ccc(O)cc1)C(=O)N[C@@H](CC(C)C)C(=O)N[C@@H](C)C(=O)N[C@@H](C)C(=O)N[C@H](C(=O)N[C@@H](CC(C)C)C(=O)N[C@@H](CO[C@@H]1O[C@H](CO)[C@@H](O)[C@H](O)[C@H]1O)C(N)=O)C(C)C)C(C)C)[C@@H](C)O [CRA3017] |
| 0.65 µM | 88% | 7.31 | 31.10 | 0.0889 µM | 74% | 113% | 0.24 | 0.0209 µM | CCC[C@H](NC(=O)[C@H](CCC(N)=O)NC(=O)[C@H](CCCCN)NC(=O)[C@H](CCCNC(=N)N)NC(=O)[C@H](Cc1ccc(O)cc1)NC(=O)[C@H](CCCNC(=N)N)NC(=O)[C@H](CO)NC(=O)[C@H](Cc1ccc(O)cc1)NC(=O)[C@H](CO)NC(=O)[C@H](CC(=O)O)NC(=O)[C@@H](NC(=O)[C@H](Cc1ccccc1)NC(=O)[C@H](CC(C)C)NC(=O)CNC(=O)[C@H](CC(=O)O)NC(=O)[C@@H](CO)NC(=O)[C@@H](N)Cc1c[nH]cn1)[C@@H](C)O)C(=O)N[C@@H](C)C(=O)N[C@H](C(=O)N[C@@H](CCCCN)C(=O)N[C@@H](CCCCN)C(=O)N[C@@H](Cc1ccc(O)cc1)C(=O)N[C@@H](CC(C)C)C(=O)N[C@@H](C)C(=O)N[C@@H](C)C(=O)N[C@H](C(=O)N[C@@H](CC(C)C)C(=O)N[C@@H](CO[C@@H]1O[C@H](CO)[C@@H](O)[C@H](O)[C@H]1O)C(N)=O)C(C)C)C(C)C [CRA3013] |
